According to patent US6579696B1, “Polymyxin B conjugates” (priority 1992, dated 2003):
≈ marks a conversion by molar mass, not a printed value. Read-outs that look alike come from different tables or passages of the source. Ends that are not written are not given here.

Legend:
[1] = target: Fc receptors of the human U937 monocyte/macrophage cell line (human); test: 1×10^-8 M 125I-IgG on 2×10^5 U937 cells, no competitor
[2] = target: Fc receptors of the human U937 monocyte/macrophage cell line (human); test: saturation binding of 125I-IgG to 2×10^5 U937 cells
[3] = vancomycin after reaction with crosslinker, aqueous solution
Description: Vancomycin in phosphate buffer was reacted with each of the following compounds: sulfosuccinimidyl 6-[3-(2-pyridyldithio)propionamide]hexanoate (“sulfo-LC-SPDP”), m-maleimidobenzoyl-N-hydroxysulfosuccinimide ester (“sulfo-MBS”), sulfosuccinimidyl(4-iodoacetyl)aminobenzoate (“sulfo-SIAB”), and sulfosuccinimidyl 4-(p-maleimidophenyl)butyrate (“sulfo-SMPB”). All four crosslinking agents react with a primary amino group on the vancomycin molecule, resulting in the formation of an amide bond. […] Finally, vancomycin derivatized by sulfo-SIAB posesses an iodo group, which can also react with a sulfhydryl group on either reduced IgG or derivatized IgG, by nucleophilic substitution for the iodo group. […] The mixtures were incubated with agitation at ambient temperature.

[4] = test system: Staphylococcus epidermidis; test: MIC and MBC; format: cell-based
S. aureus = test: MIC testing against S. aureus; format: cell-based, Staph. aureus; conditions: Staphylococcus aureus
Description: 1.5 ml fractions were collected. The fractions in the void volume were pooled and sterile filtered. The activity of the conjugate was determined by standard MIC testing against S. aureus.

E. coli H16 [5] = test system: E. coli H16
E. coli 0111:B4 [6] = test system: E. coli 0111:B4
E. coli H16 [7] = format: cell-based; conditions: Table 42
E. coli 25922 [8] = test system: E. coli 25922
E. coli 25922 [9] = format: cell-based; conditions: Table 42
Salmonella 34576 [10] = conditions: Table 43
avidin (Sigma) [11] = target: avidin (Sigma) (UniProt P02701); test: capture ELISA: PMB-Cys-Biotin on avidin-coated wells, detected with chicken anti-PMB 1/1000; maximally diluted sample of a 5-fold series from 10 ng/ml
Chain of avidin (Sigma) (P02701 25-152 limits assumed): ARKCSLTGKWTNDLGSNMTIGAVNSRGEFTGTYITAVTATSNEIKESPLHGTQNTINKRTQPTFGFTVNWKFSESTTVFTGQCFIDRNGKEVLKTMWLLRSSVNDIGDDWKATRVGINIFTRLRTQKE

E. coli J5 = format: cell-based; design: key: −: no agglutination; +: microagglutination; +++: macroagglutination; conditions: for Agglutination by avidin beads: Table 53
Description: (§1) 100 ul polystyrene beads (Spherotech […], 5% w/v) were aliquoted to two 1.5 mL microcentrifuge tubes, centrifuged 1 min at 12,000 g in microcentrifuge and washed 2×with 1 ml PBS (vortexed and recentrifuged 1-2 min after each wash). The beads were resuspended in 900 ul PBS, and 100 ul of 1 mg/ml solution of avidin (Sigma) added, and the tubes rotated overnight at room temperature. The beads were pelleted, and washed sequentially as described above with 1 ml PBS, PBS+0.5% tween 20 (PBST), and PBS, and each sample resuspended in 200 ul PBS. The samples were pooled and stored at 4 degrees.
(§2) 20 ul avidin coated beads were aliquoted into 2×1.5 ml microcentrifuge tubes, and non-specifically binding sites blocked by rotating with 1 ml PBS+1% BSA for 1 hr at room temperature. […] The samples were pelleted, and washed with 1 ml PBS, repelleted and resuspended with 20 ul PBS. III Bacterial Agglutination Assays
(§3) 5 ul of each resin was added to 20 ul bacteria (1/10 dilution of a saturated overnight culture) in independant depression wells (2 wells/bacteria tested). The samples were incubated 30 min at 37 degrees, swirled, and agglutination scored. (Note that −=no agglutination, +=microagglutination and +++=macroagglutination)
To determine if free Immunoadaptor™ compounds can also stably bind surface exposed bacterial structures, agglutination assays were performed using bacteria prebound to Immunoadaptor™ compounds. The assay was performed with J5 bacteria, since the agglutination signal (see table above) was the strongest with this strain. 40 ul avidin coated resin was blocked for 1 hr at room temperature with 1 ml PBS+1% BSA, pelleted as described above, and resuspended in 40 ul PBS. […] The following assays were performed:
Incubated 1 hr at 37 degrees in depression well, swirled and agglutination scored.
Incubated 10 min at 37 degrees then added 5 ul avidin coated beads. Incubated 1 hr at 37 degrees in depression well, swirled and agglutination scored.
Incubated 15 min at 37 degrees, pelleted cells by centrifugation, washed with 100 ul PBS (resuspended cells with micropipetter) and repelleted. Cells were resuspended in 80 ul PBS, 20 ul aliquots distributed to depression well, 5 ul avidin coated beads added, and, incubated 1 hr at 37 degrees, swirled and agglutination scored.

[12] = target: avidin and chicken anti-PMB antibody (Gallus gallus, UniProt P02701)
Chain of avidin and chicken anti-PMB antibody (P02701 25-152): as the sequence (P02701 25-152 limits assumed) above
Description: The capture ELISA was performed as described below. […] The coating suspensions were decanted, and all wells were washed three times using PBS+0.5% Tween 20 (PBST). In order to block non-specific binding sites, 100 ul of 1% BSA (Sigma, St. Louis, Mo.) in PBS (blocking solution) was then added to each well, and the plates were incubated for 1 hr. at 37° C.
The blocking solution was decanted, and duplicate samples of 150 ul of either PMB-Cy-Biotin or PMB-Cy-Fl added to the first well of a dilution series. The initial testing concentration of the premixed conjugate was 10 ng/ml in blocking buffer (see above), followed by 5 fold dilutions in blocking buffer. This was accomplished by serially transferring 30 ul aliquots to 120 ul buffer, mixing, and repeating the dilution into a fresh well. After the final dilution, 30 ul was removed from the well such that all wells contained 120 ul final volume. A total of 2 such dilutions were performed. […] Following this incubation, the serially diluted samples were decanted, and the wells were washed six times using PBST (Phosphate-Buffered Saline with Tween). To each well, 100 ul of 1/1000 diluted chicken anti-PMB antibody or chicken preimmune, diluted in blocking buffer was added, and the plate incubated 1 hr at 37° C. The antibody solutions were decanted and the plates were washed as described above. To each well, 100 ul of 1/1000 diluted rabbit anti-chicken IgG alkaline phosphatase (Sigma) diluted in blocking buffer was added, and the plate incubated 1 hr at 37° C. The antibody solutions were decanted and the plates were washed as described above, substituting 50 nM Na2CO3, pH 9.5 for the PBST in the final wash. The plates were developed by the addition of 100 ul of a solution containing 1 mg/ml para-nitro phenyl phosphate (Sigma, St. Louis, Mo.) dissolved in 50 nM Na2CO3, 10 mM MgCl2, pH 9.5 to each well, and incubating the plates at room temperature in the dark overnight. […] Only the ELISA readings from the maximally diluted samples in each dilution series are shown.

[13] = test system: J5 bacteria phagocytosed by J774A.1 mouse macrophage cell line; format: cell-based; conditions: Table 57; + anti-avidin (1/1000)
E. coli HB101 [14] = format: cell-based; design: key: −: no agglutination; +: microagglutination; +++: macroagglutination; conditions: avidin beads loaded with compound
Description: as §1, §2, §3

Salmonella 34576 [15] = format: cell-based; design: key: −: no agglutination; +: microagglutination; +++: macroagglutination; conditions: avidin beads loaded with compound
Description: as §1, §2, §3

E. coli 0111:B4 [16] = format: cell-based; design: key: −: no agglutination; +: microagglutination; +++: macroagglutination; conditions: avidin beads loaded with compound
Description: as §1, §2, §3

E. coli HB101 [17] = test: MIC and MBC in broth; format: cell-based; conditions: Example 38
S. enteriditis LPS = test: Polarization of PMB-FITC by LPS; format: binding; conditions: 50 ul of 1 mg/ml LPS; PMB-FITC 1 to 150
P. aeruginosa LPS = test: Polarization of PMB-FITC by LPS; format: binding; conditions: 50 ul of 1 mg/ml LPS; PMB-FITC 1 to 150
E. coli HB101 [18] = test system: E. coli HB101
E. coli 011B4 LPS = format: binding; conditions: 50 ul of 1 mg/ml LPS; PMB-FITC 1 to 150
Excerpt: (§4) The data for this example were generated on a fluorescence polarimeter (FPM-1, provided by Jolley Consulting and Research, Inc.) based on this optical configuration. The instrument and software generates output which includes vertical intensity (IV), horizontal intensity (IH), total intensity (IT) after correction of horizontal intensity by a constant (g), fluorescence polarization in millipolarization unit (mP) and lamp feed-back, a correction for lamp and photomultiplier tube variations.
(§5) Each of ten different lipopolysaccarides (LPS) were dissoved in distilled water at a concentration of 1 mg/ml.

V. cholera LPS = format: binding; conditions: 50 ul of 1 mg/ml LPS; PMB-FITC 1 to 150
Excerpt: as §4, §5

E. coli 026B6 LPS = format: binding; conditions: 50 ul of 1 mg/ml LPS; PMB-FITC 1 to 150
Excerpt: as §4, §5

S. flexneri LPS = format: binding; conditions: 50 ul of 1 mg/ml LPS; PMB-FITC 1 to 150
Excerpt: as §4, §5

R. sphaeroides LPS = test: Polarization of PMB-FITC by LPS; format: binding; conditions: 50 ul of 1 mg/ml LPS; PMB-FITC 1 to 150
S. typhimurium LPS = test: Polarization of PMB-FITC by LPS; format: binding; conditions: 50 ul of 1 mg/ml LPS; PMB-FITC 1 to 150
K. pneumoniae LPS = test: Polarization of PMB-FITC by LPS; format: binding; conditions: 50 ul of 1 mg/ml LPS; PMB-FITC 1 to 150
S. marsecens LPS = test: Polarization of PMB-FITC by LPS; format: binding; conditions: 50 ul of 1 mg/ml LPS; PMB-FITC 1 to 150
[19] = target: polymyxin B-cysteine-maleimide-fluorescein (PMB-Cys-Mal-FL) (Bacillus polymyxa); test: fluorescence polarization, antibody 5×10^-8 M with PMB-Cys-Mal-FL 10^-7 M (free conjugate: 32.5 mP)
[20] = target: polymyxin B-cysteine-maleimide-fluorescein (PMB-Cys-Mal-FL) (Bacillus polymyxa); test: fluorescence polarization, antibody 5×10^-8 M with PMB-Cys-Mal-FL 10^-7 M (free conjugate: 845)
[21] = target: polymyxin B-cysteine-maleimide-fluorescein (PMB-Cys-Mal-FL) (Bacillus polymyxa); test: fluorescence polarization, antibody 5×10^-8 M with PMB-Cys-Mal-FL 10^-7 M (free conjugate: 740)
[22] = target: polymyxin B-cysteine-maleimide-fluorescein (PMB-Cys-Mal-FL) (Bacillus polymyxa); test: quenching of PMB-Cys-Mal-FL coated on E. coli 0111:B4; antibody 2 ug/ml (without antibody: 40)
[23] = target: polymyxin B-cysteine-maleimide-fluorescein (PMB-Cys-Mal-FL) (Bacillus polymyxa); test: quenching of PMB-Cys-Mal-FL coated on E. coli 0111:B4; antibody 22 ug/ml (without antibody: 40)
[24] = target: polymyxin B-cysteine-maleimide-fluorescein (PMB-Cys-Mal-FL) (Bacillus polymyxa); test: quenching of PMB-Cys-Mal-FL coated on E. coli 0111:B4; antibody 1 ug/ml (without antibody: 40)
[25] = target: polymyxin B-cysteine-maleimide-fluorescein (PMB-Cys-Mal-FL) (Bacillus polymyxa); test: fluorescence intensity of PMB-Cys-Mal-FL with antibody
[26] = target: polymyxin B-cysteine-maleimide-fluorescein (PMB-Cys-Mal-FL) (Bacillus polymyxa); test: fluorescence quenching on PMB-Cys-Mal-FL coated E. coli
avidin (Sigma) [27] = target: avidin (Sigma) (UniProt P02701); test: capture ELISA: PMB-Cys-FL on avidin-coated wells, chicken preimmune 1/1000 (double control)
avidin (Sigma) [28] = target: avidin (Sigma) (UniProt P02701); test: capture ELISA: PMB-Cys-FL on avidin-coated wells, detected with chicken anti-PMB 1/1000
[29] = Table 40, first number of the cell

Compound: 125I-labelled human IgG (New England Nuclear) (antibody)
- bound radioactivity (cpm) [1]: 12000 cpm
- saturating concentration [2]: 10 nM

Compound: CN[C@H](CC(C)C)C(=O)N[C@H]1C(=O)N[C@@H](CC(N)=O)C(=O)N[C@H]2C(=O)N[C@H]3C(=O)N[C@H](C(=O)N[C@H](C(=O)O)c4cc(O)cc(O)c4-c4cc3ccc4O)[C@H](O)c3ccc(c(Cl)c3)Oc3cc2cc(c3O[C@@H]2O[C@H](CO)[C@@H](O)[C@H](O)[C@H]2O[C@H]2C[C@](C)(N)[C@H](O)[C@H](C)O2)Oc2ccc(cc2Cl)[C@H]1O [Vanco, Vancomycin]
- Soluble [3]: Yes
- MBC [4]: 2.5 µg/mL (≈ 1.73 µM)
- MIC (S. aureus): 1 to 2 µg/mL (≈ 0.69 to 1.38 µM)
- MIC (S. aureus; read-out: MIC w/o IgG): 1 µg/mL (≈ 0.69 µM)

Compound: ALYKKLLKKLLKSAKKLG [C18G, ala-leu-tyr-lys-lys-leu-leu-lys-lys-leu-leu-lys-ser-ala-lys-lys-leu-gly, reference compound]
- MIC (E. coli H16 [5]): 30 µg/mL
- MIC (E. coli 0111:B4 [6]; 0111:B4): 10 µg/mL
- BDA (E. coli H16 [7]): 5 to 10 µg/mL
- MIC (E. coli 25922 [8]): 2 to 4 µg/mL
- BDA (E. coli 25922 [9]): 1 µg/mL
- MIC (Salmonella 34576 [10]): 5 to 10 µg/mL

Compound: Biotinylated Cysteinyl PMB (PMB-Cys-Biotin) (peptide)
- absorbance at 410 nm (avidin (Sigma) [11]): 1.25 A410

Compound: Biotinylated Cysteinyl PMB [PMB-Cys-Biotin]
- Agglutination by avidin beads (E. coli J5; Chase format): +
- Agglutination by avidin beads (E. coli J5; Premix format): +
- Agglutination by avidin beads (E. coli J5; Wash + Chase format): +
- Agglutination (E. coli J5; avidin beads loaded with compound): +++
- MIC (E. coli 0111:B4 [6]; [29]): 1.0 µg/mL
- ELISA absorbency at 410 nm ([12]; Anti-PMB test antibody, Avidin coated wells, maximally diluted sample): 1.252
- ELISA absorbency at 410 nm ([12]; Anti-PMB, PBS coated wells): 0.016
- ELISA absorbency at 410 nm ([12]; Preimmune, Avidin coated wells): 0.014
- ELISA absorbency at 410 nm ([12]; Preimmune, PBS coated wells): 0.019
- % Macrophage with phagocytosed bacteria [13]: 21%
- Recovered bacterial colonies [13]: 74
- Agglutination (E. coli HB101 [14]): +
- Agglutination (Salmonella 34576 [15]): +
- Agglutination (E. coli 0111:B4 [16]): −

Compound: Limulus antilipopolysaccharide factor [native LALF]
- MIC (E. coli HB101 [17]): 16 µg/mL

Compound: PMB-5-Thiocabamoyl-fluorescein [PMB-FITC]
- mP (S. enteriditis LPS): 255.9
- mP (P. aeruginosa LPS): 236.4
- MIC (E. coli HB101 [18]; [29]): 0.2 µg/mL
- MIC (E. coli HB101 [18]; Table 44): 0.2 µg/mL
- mP (E. coli 011B4 LPS): 254.6
- mP (V. cholera LPS): 174.8
- mP (E. coli 026B6 LPS): 70.3
- mP (S. flexneri LPS): 246.3
- mP (R. sphaeroides LPS): 224.7
- mP (S. typhimurium LPS): 266.8
- mP (K. pneumoniae LPS): 258.5
- mP (S. marsecens LPS): 262.6

Compound: mouse monoclonal anti-fluorescein antibody (#4-4-20)
- mP (millipolarization) [19]: 390 mP
- IV (vertical intensity) [20]: 61
- IH (horizontal intensity) [21]: 25
- FLUORESCENCE (AFU) [22]: 15 AFU
- FLUORESCENCE (AFU) [23]: 15 AFU
- FLUORESCENCE (AFU) [24]: 16 AFU
- percent of the intensity signal quenched [25]: 95%
- fraction of fluorescein available to bind the antibody [26]: 0.67

Compound: polymyxin B-cysteine-maleimide-fluorescein (PMB-Cys-Mal-FL) (peptide)
- absorbance at 410 nm (avidin (Sigma) [27]): 0.01 A410
- absorbance at 410 nm (avidin (Sigma) [28]): 0.033 A410
